Data reported in ChEMBL document CHEMBL5390198, “Scaffold hopping of N-benzyl-3,4,5-trimethoxyaniline: 5,6,7-Trimethoxyflavan derivatives as novel potential anticancer agents modulating hippo signaling pathway” (2023).
Calls of active or inactive are those of the source. The calls are words filed in the database; no cut-off is given here.

Tests used:
A549 [1] = test: Induction of apoptosis in human A549 cells assessed as increase in apoptotic cells measured after 48 hrs by annexin V-FITC/PI staining based flow cytometry analysis; assay type: functional, cell-based; settings: dose 1-4 µM
Hs-578T = test: Antiproliferative activity against human Hs-578T cells assessed as inhibition of cell growth at 10 uM measured after 24 to 72 hrs by SRB method relative to control; assay type: functional; settings: time 24-72 hrs
HOP-92 = test: cells; assay type: functional; settings: Homo sapiens, time 24-72 hrs
Description: Antiproliferative activity against human HOP-92 cells assessed as inhibition of cell growth at 10 uM measured after 24 to 72 hrs by SRB method relative to control

DU-145 [2] = test: Potency index, ratio of enzalutamide GI50 to test compound GI50 for growth inhibition of human DU-145 cells measured after 24 to 72 hrs by SRB method; assay type: functional; settings: time 24-72 hrs
A549 [3] = test: Induction of apoptosis in human A549 cells assessed as decrease in PARP expression measured after 48 hrs by Western blot analysis; assay type: functional, cell-based; settings: dose <= 4.0 µM
HOP-62 = test: Antiproliferative activity against human HOP-62 cells assessed as inhibition of cell growth at 10 uM measured after 24 to 72 hrs by SRB method relative to control; assay type: functional; settings: time 24-72 hrs
A549 [4] = test: Induction of apoptosis in human A549 cells assessed as increase in cleaved PARP expression measured after 48 hrs by Western blot analysis; assay type: functional, cell-based; settings: dose <= 4.0 µM
NCI-H460 = test: cells; assay type: functional; settings: Homo sapiens, time 24-72 hrs
Description: Antiproliferative activity against human NCI-H460 cells assessed as inhibition of cell growth at 10 uM measured after 24 to 72 hrs by SRB method relative to control

A549 [5] = test: Induction of cell cycle arrest in human A549 cells assessed as decrease in number of cells in G0/G1 phase at 1 to 4 uM by flow cytometry analysis; assay type: functional, cell-based; settings: dose 1-4 µM
T47D = test: Antiproliferative activity against human T47D cells assessed as inhibition of cell growth at 10 uM measured after 24 to 72 hrs by SRB method relative to control; assay type: functional; settings: time 24-72 hrs
A549 [6] = test: Induction of cell cycle arrest in human A549 cells assessed as decrease in cyclin A1 expression measured after 24 hrs by Western blot analysis; assay type: functional, cell-based; settings: dose 1-4 µM
A549 [7] = test: Induction of cell cycle arrest in human A549 cells assessed as increase in number of cells in G2/M phase by flow cytometry analysis; assay type: functional, cell-based; settings: dose 1-4 µM
A549 [8] = test: Inhibition of PI3K/AKT/mTOR signalling pathway in human A549 cells assessed as inhibition of P70S6K phosphorylation measured after 24 hrs by Western blot analysis; assay type: cell-based; settings: dose <= 4.0 µM
A549 [9] = test: Activation of Hippo signaling pathway in human A549 cells assessed as increase in p-MOB1/MOB1 ratio at upto 4 uM incubated for 24 hrs by Western blotting analysis; assay type: cell-based; settings: filed as activator
MDA-MB-435 = test: Growth inhibition of human MDA-MB-435 cells measured after 24 to 72 hrs by SRB method; assay type: functional; settings: time 24-72 hrs
A549 [10] = test: Induction of apoptosis in human A549 cells assessed as decrease in caspase-3 expression measured after 48 hrs by Western blot analysis; assay type: functional, cell-based; settings: dose <= 4.0 µM
A549 [11] = test: Induction of apoptosis in human A549 cells assessed as increase necrotic cell death at 1 to 4 uM measured after 48 hrs by annexin V-FITC/PI staining based flow cytometry analysis; assay type: functional; settings: dose 1-4 µM
MDA-MB-468 = test: Antiproliferative activity against human MDA-MB-468 cells assessed as inhibition of cell growth at 10 uM measured after 24 to 72 hrs by SRB method relative to control; assay type: functional; settings: time 24-72 hrs
A549 [12] = test: Induction of cell cycle arrest in human A549 cells assessed as decrease in cyclin H expression measured after 24 hrs by Western blot analysis; assay type: functional, cell-based; settings: dose 1-4 µM
K562 = test: Antiproliferative activity against human K562 cells assessed as inhibition of cell growth at 10 uM measured after 24 to 72 hrs by SRB method relative to control; assay type: functional; settings: time 24-72 hrs
DU-145 [13] = test: Growth inhibition of human DU-145 cells measured after 24 to 72 hrs by SRB method; assay type: functional; settings: time 24-72 hrs
MCF7 = test: Antiproliferative activity against human MCF7 cells assessed as inhibition of cell growth at 10 uM measured after 24 to 72 hrs by SRB method relative to control; assay type: functional; settings: time 24-72 hrs
A549 [14] = test: Activation of Hippo signaling pathway in human A549 cells assessed as decrease in YAP incubated for 24 hrs by Western blotting analysis; assay type: cell-based; settings: filed as activator, dose <= 4.0 µM
A549 [15] = test: cells; assay type: functional; settings: Homo sapiens, time 24-72 hrs
Description: Antiproliferative activity against human A549 cells assessed as inhibition of cell growth at 10 uM measured after 24 to 72 hrs by SRB method relative to control

A549 [16] = test: Induction of cell cycle arrest in human A549 cells assessed as decrease in Cdc25c expression measured after 24 hrs by Western blot analysis; assay type: functional, cell-based; settings: dose 1-4 µM
A498 = test: Growth inhibition of human A498 cells measured after 24 to 72 hrs by SRB method; assay type: functional; settings: time 24-72 hrs
A549 [17] = test: Induction of apoptosis in human A549 cells assessed as increase in cleaved caspase-3 expression measured after 48 hrs by Western blot analysis; assay type: functional, cell-based; settings: dose <= 4.0 µM
NCI-H23 = test: cells; assay type: functional; settings: Homo sapiens, time 24-72 hrs
Description: Antiproliferative activity against human NCI-H23 cells assessed as inhibition of cell growth at 10 uM measured after 24 to 72 hrs by SRB method relative to control

SR = test: Antiproliferative activity against human SR cells assessed as inhibition of cell growth at 10 uM by measured after 24 to 72 hrs SRB method relative to control; assay type: functional; settings: time 24-72 hrs
SF-268 = test: Growth inhibition of human SF-268 cells measured after 24 to 72 hrs by SRB method; assay type: functional; settings: time 24-72 hrs
NCI-H226 = test: cells; assay type: functional; settings: Homo sapiens, time 24-72 hrs
Description: Antiproliferative activity against human NCI-H226 cells assessed as inhibition of cell growth at 10 uM measured after 24 to 72 hrs by SRB method relative to control

NCI-H322M = test: Antiproliferative activity against human NCI-H322M cells assessed as inhibition of cell growth at 10 uM measured after 24 to 72 hrs by SRB method relative to control; assay type: functional; settings: time 24-72 hrs
A549 [18] = test: Induction of apoptosis in human A549 cells assessed as increase in cleaved caspase-7 expression measured after 48 hrs by Western blot analysis; assay type: functional, cell-based; settings: dose <= 4.0 µM
SK-OV-3 = test: Growth inhibition of human SK-OV-3 cells measured after 24 to 72 hrs by SRB method; assay type: functional; settings: pooled result: one value given for 7 cell lines, strains, targets or settings, time 24-72 hrs
SF-295 = test: Growth inhibition of human SF-295 cells measured after 24 to 72 hrs by SRB method; assay type: functional; settings: time 24-72 hrs
MDA-MB-231 = test: Antiproliferative activity against human MDA-MB-231 cells assessed as inhibition of cell growth at 10 uM measured after 24 to 72 hrs by SRB method relative to control; assay type: functional; settings: time 24-72 hrs
A549 [19] = test: Induction of cell cycle arrest in human A549 cells assessed as decrease in cyclin B1 expression measured after 24 hrs by Western blot analysis; assay type: functional, cell-based; settings: dose 1-4 µM
PC-3 [20] = test: Growth inhibition of human PC-3 cells measured after 24 to 72 hrs by SRB method; assay type: functional; settings: time 24-72 hrs
MOLT-4 = test: Antiproliferative activity against human MOLT-4 cells assessed as inhibition of cell growth at 10 uM measured after 24 to 72 hrs by SRB method relative to control; assay type: functional; settings: time 24-72 hrs
CCRF-CEM = test: Antiproliferative activity against human CCRF-CEM cells assessed as inhibition of cell growth at 10 uM measured after 24 to 72 hrs by SRB method relative to control; assay type: functional; settings: time 24-72 hrs
A549 [21] = test: Activation of Hippo signaling pathway in human A549 cells assessed as increase in […] at upto 4 uM incubated for 24 hrs by Western blotting analysis; assay type: cell-based; settings: filed as activator
EKVX = test: cells; assay type: functional; settings: Homo sapiens, time 24-72 hrs
Description: Antiproliferative activity against human EKVX cells assessed as inhibition of cell growth at 10 uM measured after 24 to 72 hrs by SRB method relative to control

KM12 = test: Growth inhibition of human KM12 cells measured after 24 to 72 hrs by SRB method; assay type: functional; settings: time 24-72 hrs
HL-60 = test: Antiproliferative activity against human HL-60 cells assessed as inhibition of cell growth at 10 uM measured after 24 to 72 hrs by SRB method relative to control; assay type: functional; settings: time 24-72 hrs
BT-549 = test: Antiproliferative activity against human BT-549 cells assessed as inhibition of cell growth at 10 uM measured after 24 to 72 hrs by SRB method relative to control; assay type: functional; settings: time 24-72 hrs
SK-MEL-28 = test: Growth inhibition of human SK-MEL-28 cells measured after 24 to 72 hrs by SRB method; assay type: functional; settings: time 24-72 hrs
PC-3 [22] = test: Potency index, ratio of enzalutamide GI50 to test compound GI50 for growth inhibition of human PC-3 cells measured after 24 to 72 hrs by SRB method; assay type: functional; settings: time 24-72 hrs
RPMI-8226 = test: Antiproliferative activity against human RPMI-8226 cells assessed as inhibition of cell growth at 10 uM measured after 24 to 72 hrs by SRB method relative to control; assay type: functional; settings: time 24-72 hrs
COLO 205 = test: Growth inhibition of human COLO 205 cells measured after 24 to 72 hrs by SRB method; assay type: functional; settings: time 24-72 hrs
A549 [23] = test: Induction of cell cycle arrest in human A549 cells assessed as increase in p53 expression measured after 24 hrs by Western blot analysis; assay type: functional, cell-based; settings: dose 1-4 µM
ACHN = test: Growth inhibition of human ACHN cells measured after 24 to 72 hrs by SRB method; assay type: functional; settings: time 24-72 hrs
NCI-H522 = test: Antiproliferative activity against human NCI-H522 cells assessed as inhibition of cell growth at 10 uM measured after 24 to 72 hrs by SRB method relative to control; assay type: functional; settings: time 24-72 hrs

COc1ccc(NC(=O)c2cccc(C3CCc4c(cc(OC)c(OC)c4OC)O3)c2)cc1 (configuration not stated)
Activity (A549 [1]): Dose-Dependent Effect | inhibition at 10 µM (Hs-578T): > 60% | inhibition at 10 µM (HOP-92): 102% | fold change (FC) (DU-145 [2]): 12 | Activity (A549 [3]): Dose-Dependent Effect | inhibition at 10 µM (HOP-62): 69.3% | Activity (A549 [4]): Dose-Dependent Effect | inhibition at 10 µM (NCI-H460): 81.8% | Activity (A549 [5]): Active | inhibition at 10 µM (T47D): > 60% | Activity (A549 [6]): Dose-Dependent Effect | Activity (A549 [7]): Dose-Dependent Effect | inhibition (A549 [8]): Dose-Dependent Effect | Activity (A549 [9]): Active | GI50 (MDA-MB-435): 520 nM | Activity (A549 [10]): Dose-Dependent Effect | Activity (A549 [11]): inactive | inhibition at 10 µM (MDA-MB-468): > 60% | Activity (A549 [12]): Dose-Dependent Effect | inhibition at 10 µM (K562): > 60% | GI50 (DU-145 [13]): 2950 nM | inhibition at 10 µM (MCF7): > 60% | Activity (A549 [14]): Dose-Dependent Effect | inhibition at 10 µM (A549 [15]): 67.9% | Activity (A549 [16]): Dose-Dependent Effect | GI50 (A498): 1380 nM | Activity (A549 [17]): Dose-Dependent Effect | inhibition at 10 µM (NCI-H23): 47.9% | inhibition at 10 µM (SR): > 60% | GI50 (SF-268): 5130 nM | inhibition at 10 µM (NCI-H226): 52.5% | inhibition at 10 µM (NCI-H322M): 46.1% | Activity (A549 [18]): Dose-Dependent Effect | GI50 (SK-OV-3): 2820 nM | GI50 (SF-295): 2510 nM | inhibition at 10 µM (MDA-MB-231): > 60% | Activity (A549 [19]): Dose-Dependent Effect | GI50 (PC-3 [20]): 1580 nM | inhibition at 10 µM (MOLT-4): > 60% | inhibition at 10 µM (CCRF-CEM): > 60% | Activity (A549 [21]): Active | inhibition at 10 µM (EKVX): 53% | GI50 (KM12): 3470 nM | inhibition at 10 µM (HL-60): > 60% | inhibition at 10 µM (BT-549): > 60% | GI50 (SK-MEL-28): 4070 nM | fold change (FC) (PC-3 [22]): 12 | inhibition at 10 µM (RPMI-8226): > 60% | GI50 (COLO 205): 2400 nM | Activity (A549 [23]): Dose-Dependent Effect | GI50 (ACHN): 4270 nM | inhibition at 10 µM (NCI-H522): 78.2%
